Biological target: T1, TRPC3 (Homo sapiens, UniProt Q13507)
T1 sequence (Q13507 1-921): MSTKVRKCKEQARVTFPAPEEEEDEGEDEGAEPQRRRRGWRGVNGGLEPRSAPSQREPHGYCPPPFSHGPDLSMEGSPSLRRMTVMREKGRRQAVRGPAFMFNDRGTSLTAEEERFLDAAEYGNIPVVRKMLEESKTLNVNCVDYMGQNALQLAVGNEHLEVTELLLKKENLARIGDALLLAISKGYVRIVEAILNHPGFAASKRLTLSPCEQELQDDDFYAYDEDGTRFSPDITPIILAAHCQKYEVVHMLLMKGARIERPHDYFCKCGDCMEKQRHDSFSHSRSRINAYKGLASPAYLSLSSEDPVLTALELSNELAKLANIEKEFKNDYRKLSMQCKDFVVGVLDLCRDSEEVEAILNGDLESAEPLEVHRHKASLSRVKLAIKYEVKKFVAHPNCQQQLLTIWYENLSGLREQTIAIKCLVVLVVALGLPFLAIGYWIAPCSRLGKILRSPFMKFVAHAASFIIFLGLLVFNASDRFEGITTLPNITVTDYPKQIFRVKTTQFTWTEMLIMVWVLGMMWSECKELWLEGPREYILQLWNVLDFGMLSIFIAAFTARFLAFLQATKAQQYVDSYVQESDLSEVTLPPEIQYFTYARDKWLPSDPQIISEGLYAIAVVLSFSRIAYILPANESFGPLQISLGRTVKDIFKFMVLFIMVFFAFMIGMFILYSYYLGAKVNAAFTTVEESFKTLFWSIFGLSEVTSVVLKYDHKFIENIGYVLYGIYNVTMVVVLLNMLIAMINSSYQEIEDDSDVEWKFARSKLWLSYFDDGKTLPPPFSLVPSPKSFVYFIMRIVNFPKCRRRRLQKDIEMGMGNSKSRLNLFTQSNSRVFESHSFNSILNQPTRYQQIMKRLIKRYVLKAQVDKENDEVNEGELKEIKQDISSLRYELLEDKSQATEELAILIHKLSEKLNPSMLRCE
Assay: whole-cell patch clamp of HEK293 cells transfected with hTRPC3, currents activated by GSK1702934A
Format: cell-based
Parameters: expressed in transfected cells; host or cells: HEK293 (CRL-1573), transient transfection, pMO vector
Conditions: 10 μM compound in presence of agonist GSK1702934A; HEK293 whole-cell peak current; read-out: hTRPC3 % Inhibition at 10 μM (mean ± SEM)
Protocol: Human embryonic kidney 293 (HEK293; catalog number CRL-1573) cells were cultured in Dulbecco's modified Eagle's medium (Invitrogen) supplemented with 10% fetal bovine serum and 1% penicillin-streptomycin at 37° C. and 5% CO2. Constructs cloned in pMO (a pcDNA3-modified vector) were co-transfected with GFP-pMO, using Lipofectamine 2000 (Invitrogen) according to the manufacturer's instructions. Macroscopic currents in the whole-cell patch clamp configuration were recorded 18-24 h post-transfection. The extracellular solution contained 140 mM NaCl, 6 mM KCl, 2 mM MgCl2, 10 mM HEPES, and 10 mM glucose (pH 7.4). Pipettes were made of borosilicate glass (outer diameter, 1.5 mm; inner diameter, 1.10 mm; Sutter Instruments) and fire-polished with a resistance between 2.8 and 4.0 megaohms when filled with an intracellular solution that contained 140 mM CsCl, 5 mM EGTA, and 10 mM HEPES, pH 7.2. Currents were recorded with a Multiclamp 700B amplifier (Molecular Devices) using a 1-s ramp from −100 to 100 mV. Agonist and antagonists perfused were dissolved in the bath solution prior experiments: TRP channel agonists Allyl isothiocyanate (AITC; TRPA1), capsaicin (TRPV1), and menthol (TRPM8) were obtained from Sigma, GSK1016790A (TRPV4) from Cayman chemicals, and GSK1702934A (TRPC3, TRPC6 and TRPC7) from Tocris Bioscience. Antagonist Pyr3 was obtained from Tocris Bioscience, all other antagonists were synthesized in house. Data were acquired with a sampling rate of 20 kHz, low-pass filtered (10 kHz), and analyzed offline using Clampfit v10.4.2.0 (Molecular Devices).
Electrophysiology results were expressed as means±SD. Data were plotted, and sigmoidal fitting was done using OriginPro (from OriginLab), with the following Boltzmann function:
Using the patch clamp technique in the whole-cell configuration, compounds were screened by challenging hTRPC3 overexpressing HEK293 cells with GSK1702934A to activate TRPC3 and each of the synthesized compounds (10 μM) individually in the presence of the agonist.
To avoid tachyphylaxis and determine the IC50 of compound 22, each point of the dose response curve (FIG. 1B) was done individually on a cell and exchanging coverslips between cells. […] FIGS. 1D-1I show the inhibition of TRPC3-mediated currents by compound 22 and Pyr3 (serving as the reference control). […] Similar results were obtained when OAG was used as the agonist (data not shown).

inhibition at 10 µM [%] | SMILES
49.5 ± 3.91 | CCOC(=O)c1cnn(-c2ccc(-n3ccccc3=O)cc2)c1C(F)(F)F [Compound 1, Ethyl 1-(4-(2-oxopyridin-1(2H)-yl)phenyl)-5-(trifluoromethyl)-1H-pyrazole-4-carboxylate]
71.1 ± 2.66 | CCOC(=O)c1cnn(-c2ccc(-n3ccc(Cl)cc3=O)cc2)c1C(F)(F)F [Compound 2, Ethyl 1-(4-(4-chloro-2-oxopyridin-1(2H)-yl)phenyl)-5-(trifluoromethyl)-1H-pyrazole-4-carboxylate]
54 ± 7.25 | CCOC(=O)c1cnn(-c2ccc(-n3cc(Cl)ccc3=O)cc2)c1C(F)(F)F [Compound 3, Ethyl 1-(4-(5-chloro-2-oxopyridin-1(2H)-yl)phenyl)-5-(trifluoromethyl)-1H-pyrazole-4-carboxylate]
51.4 ± 4.35 | CCOC(=O)c1cnn(-c2ccc(-n3ccc(Cl)c(Cl)c3=O)cc2)c1C(F)(F)F [Compound 4, Ethyl 1-(4-(3,4-dichloro-2-oxopyridin-1(2H)-yl)phenyl)-5-(trifluoromethyl)-1H-pyrazole-4-carboxylate]
39.1 ± 2.31 | CCOC(=O)c1cnn(-c2ccc(-n3cc(Cl)c(Cl)cc3=O)cc2)c1C(F)(F)F [Compound 5, Ethyl 1-(4-(4,5-dichloro-2-oxopyridin-1(2H)-yl)phenyl)-5-(trifluoromethyl)-1H-pyrazole-4-carboxylate]
50.5 ± 5.49 | CCOC(=O)c1cnn(-c2ccc(-n3cc(Cl)cc(Cl)c3=O)cc2)c1C(F)(F)F [Compound 6, Ethyl 1-(4-(3,5-dichloro-2-oxopyridin-1(2H)-yl)phenyl)-5-(trifluoromethyl)-1H-pyrazole-4-carboxylate]
39.1 ± 2.31 | CCOC(=O)c1cnn(-c2ccc(-n3cc(Cl)c(Cl)c(Cl)c3=O)cc2)c1C(F)(F)F [Compound 9, Ethyl 1-(4-(3,4,5-trichloro-2-oxopyridin-1(2H)-yl)phenyl)-5-(trifluoromethyl)-1H-pyrazole-4-carboxylate]
84.52 ± 0.722 | CCNC(=O)c1cnn(-c2ccc(-n3ccc(Cl)cc3=O)cc2)c1C(F)(F)F [Compound 21, 1-(4-(4-chloro-2-oxopyridin-1(2H)-yl)phenyl)-N-ethyl-5-(trifluoromethyl)-1H-pyrazole-4-carboxamide]
51.5 ± 6 | CCNC(=O)c1cnn(-c2ccc(-n3cc(Cl)c(Cl)cc3=O)cc2)c1C(F)(F)F [Compound 23]
55.5 ± 7.07 | CCNC(=O)c1cnn(-c2ccc(-n3ccc(Cl)c(F)c3=O)cc2)c1C(F)(F)F [Compound 24]
76 ± 6.65 | CCNC(=O)c1cnn(-c2ccc(-n3ccc(Cl)c(Br)c3=O)cc2)c1C(F)(F)F [Compound 25, 1-(4-(3-bromo-4-chloro-2-oxopyridin-1(2H)-yl)phenyl)-N-ethyl-5-(trifluoromethyl)-1H-pyrazole-4-carboxamide]
89.4 ± 6.45 | CCNC(=O)c1cnn(-c2ccc(-n3ccc(C(F)(F)F)c(Cl)c3=O)cc2)c1C(F)(F)F [Compound 27, 1-(4-(3-chloro-2-oxo-4-(trifluoromethyl)pyridin-1(2H)-yl)phenyl)-N-ethyl-5-(trifluoromethyl)-1H-pyrazole-4-carboxamide]
96 ± 1.37 | CCNC(=O)c1cnn(-c2ccc(-n3ccc(O)c(Cl)c3=O)cc2)c1C(F)(F)F [Compound 32, 1-(4-(3-chloro-4-hydroxy-2-oxopyridin-1(2H)-yl)phenyl)-N-ethyl-5-(trifluoromethyl)-1H-pyrazole-4-carboxamide]
45.2 ± 3.59 | CCNC(=O)c1cnn(-c2ccc(-n3cc(Cl)c(Cl)c(Cl)c3=O)cc2)c1C(F)(F)F [Compound 33]
34 ± 6.52 | CCNC(=O)c1cnn(-c2ccc(-n3cc(Br)c(Cl)c(Br)c3=O)cc2)c1C(F)(F)F [Compound 34]
40.2 ± 10.3 | NC(=O)c1cnn(-c2ccc(-n3ccc(Cl)c(Cl)c3=O)cc2)c1C(F)(F)F [Compound 37, 1-(4-(3,4-dichloro-2-oxopyridin-1(2H)-yl)phenyl)-5-(trifluoromethyl)-1H-pyrazole-4-carboxamide]
71.5 ± 4.51 | CCCNC(=O)c1cnn(-c2ccc(-n3ccc(Cl)c(Cl)c3=O)cc2)c1C(F)(F)F [Compound 39, 1-(4-(3,4-dichloro-2-oxopyridin-1(2H)-yl)phenyl)-N-propyl-5-(trifluoromethyl)-1H-pyrazole-4-carboxamide]
40.2 ± 3.95 | CCCCNC(=O)c1cnn(-c2ccc(-n3ccc(Cl)c(Cl)c3=O)cc2)c1C(F)(F)F [Compound 40, N-butyl-1-(4-(3,4-dichloro-2-oxopyridin-1(2H)-yl)phenyl)-5-(trifluoromethyl)-1H-pyrazole-4-carboxamide]
25.8 ± 8.57 | CC(C)NC(=O)c1cnn(-c2ccc(-n3ccc(Cl)c(Cl)c3=O)cc2)c1C(F)(F)F [Compound 41, 1-(4-(3,4-dichloro-2-oxopyridin-1(2H)-yl)phenyl)-N-isopropyl-5-(trifluoromethyl)-1H-pyrazole-4-carboxamide]
94.8 ± 2.75 | CCN(CC)C(=O)c1cnn(-c2ccc(-n3ccc(Cl)c(Cl)c3=O)cc2)c1C(F)(F)F [Compound 43, 1-(4-(3,4-dichloro-2-oxopyridin-1(2H)-yl)phenyl)-N,N-diethyl-5-(trifluoromethyl)-1H-pyrazole-4-carboxamide]
74.8 ± 5.65 | O=C(NC1CC1)c1cnn(-c2ccc(-n3ccc(Cl)c(Cl)c3=O)cc2)c1C(F)(F)F [Compound 44, N-cyclopropyl-1-(4-(3,4-dichloro-2-oxopyridin-1(2H)-yl)phenyl)-5-(trifluoromethyl)-1H-pyrazole-4-carboxamide]
86.7 ± 3.82 | O=C(c1cnn(-c2ccc(-n3ccc(Cl)c(Cl)c3=O)cc2)c1C(F)(F)F)N1CCCC1 [Compound 45, 3,4-dichloro-1-(4-(4-(pyrrolidine-1-carbonyl)-5-(trifluoromethyl)-1H-pyrazol-1-yl)phenyl)pyridin-2(1H)-one]
92.9 ± 6.78 | CCc1nnc(-c2cnn(-c3ccc(-n4ccc(Cl)c(Cl)c4=O)cc3)c2C(F)(F)F)o1 [Compound 46, 3,4-dichloro-1-(4-(4-(5-ethyl-1,3,4-oxadiazol-2-yl)-5-(trifluoromethyl)-1H-pyrazol-1-yl)phenyl)pyridin-2(1H)-one]
67.8 ± 1.75 | CCNS(=O)(=O)c1cnn(-c2ccc(-n3ccc(Cl)c(Cl)c3=O)cc2)c1C(F)(F)F [Compound 48, 1-(4-(3,4-dichloro-2-oxopyridin-1(2H)-yl)phenyl)-N-ethyl-5-(trifluoromethyl)-1H-pyrazole-4-sulfonamide]
97.23 ± 0.89 | CCNC(=O)c1cn(-c2ccc(-n3ccc(Cl)c(Cl)c3=O)cc2)nc1C(F)(F)F [Compound 49, 1-(4-(3,4-dichloro-2-oxopyridin-1(2H)-yl)phenyl)-N-ethyl-3-(trifluoromethyl)-1H-pyrazole-4-carboxamide]

Same assay, conditions: agonist GSK1702934A; HEK293 whole-cell patch clamp; read-out: hTRPC3 IC50 (μM, mean ± SEM)

IC50 [µM] | SMILES
0.35 ± 0.09 | CCNC(=O)c1cnn(-c2ccc(-n3ccc(O)c(Cl)c3=O)cc2)c1C(F)(F)F [Compound 32, 1-(4-(3-chloro-4-hydroxy-2-oxopyridin-1(2H)-yl)phenyl)-N-ethyl-5-(trifluoromethyl)-1H-pyrazole-4-carboxamide]
4.32 ± 0.98 | CCN(CC)C(=O)c1cnn(-c2ccc(-n3ccc(Cl)c(Cl)c3=O)cc2)c1C(F)(F)F [Compound 43, 1-(4-(3,4-dichloro-2-oxopyridin-1(2H)-yl)phenyl)-N,N-diethyl-5-(trifluoromethyl)-1H-pyrazole-4-carboxamide]
0.29 ± 0.05 | CCc1nnc(-c2cnn(-c3ccc(-n4ccc(Cl)c(Cl)c4=O)cc3)c2C(F)(F)F)o1 [Compound 46, 3,4-dichloro-1-(4-(4-(5-ethyl-1,3,4-oxadiazol-2-yl)-5-(trifluoromethyl)-1H-pyrazol-1-yl)phenyl)pyridin-2(1H)-one]
1.1 ± 0.24 | CCNC(=O)c1cn(-c2ccc(-n3ccc(Cl)c(Cl)c3=O)cc2)nc1C(F)(F)F [Compound 49, 1-(4-(3,4-dichloro-2-oxopyridin-1(2H)-yl)phenyl)-N-ethyl-3-(trifluoromethyl)-1H-pyrazole-4-carboxamide]

Source: patent US20230265068A1, “TRANSIENT RECEPTOR POTENTIAL CANONICAL 3 INHIBITORS AND METHODS OF USE THEREOF” (University of Tennessee Research Foundation, priority 2020, published 2023)
